Laboratory results published in ChEMBL document CHEMBL1201862, “PubChem BioAssay data set” (2004).
The source made the active and inactive calls.

Columns and labels:
[1] = biological target: Intestinal-type alkaline phosphatase (Mus musculus, UniProt P24822); experiment: PubChem AID 488785; type: functional
[2] = biological target: T1, Dual specificity protein phosphatase 6 (Rattus norvegicus, UniProt Q64346); experiment: MKP-3 phosphatase inhibitors, primary screen, biochemical, rat enzyme, in vitro (AID 425)
T1 sequence (Q64346 whole entry): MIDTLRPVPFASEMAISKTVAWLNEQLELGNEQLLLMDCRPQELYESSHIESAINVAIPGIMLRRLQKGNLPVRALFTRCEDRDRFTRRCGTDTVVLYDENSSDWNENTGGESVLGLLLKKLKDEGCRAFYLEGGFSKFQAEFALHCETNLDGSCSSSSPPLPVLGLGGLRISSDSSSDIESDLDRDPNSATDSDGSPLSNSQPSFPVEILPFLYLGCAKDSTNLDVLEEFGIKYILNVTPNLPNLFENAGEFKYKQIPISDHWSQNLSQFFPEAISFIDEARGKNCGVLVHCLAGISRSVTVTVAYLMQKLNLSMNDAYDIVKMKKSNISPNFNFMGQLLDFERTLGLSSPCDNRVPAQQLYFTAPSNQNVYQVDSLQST

[3] = biological target: T2, Ubiquitin-conjugating enzyme E2 N (Homo sapiens, UniProt P61088); type: functional
T2 sequence (P61088 whole entry): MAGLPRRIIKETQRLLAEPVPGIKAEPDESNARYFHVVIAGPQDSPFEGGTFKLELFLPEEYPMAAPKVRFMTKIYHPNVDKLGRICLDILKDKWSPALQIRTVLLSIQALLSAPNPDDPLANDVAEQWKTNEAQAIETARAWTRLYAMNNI

Troponin, cardiac muscle = Troponin, cardiac muscle (Homo sapiens, UniProt P19429+P45379+P63316); experiment: inhibitors of cardiac thin filament calcium sensitivity, dose response, biochemical, fluorescence, cardiac regulated thin filaments, triplicate IC50 (AID 504742); type: protein-complex assay
[4] = biological target: T1, Dual specificity protein phosphatase 6; type: functional
[5] = biological target: T3, Zinc finger protein mex-5 (Caenorhabditis elegans, UniProt Q9XUB2); experiment: MEX-5/TCR-2 RNA interaction inhibitors, dose response, biochemical, C. elegans, fluorescence polarization (AID 1960)
T3 sequence (Q9XUB2 whole entry): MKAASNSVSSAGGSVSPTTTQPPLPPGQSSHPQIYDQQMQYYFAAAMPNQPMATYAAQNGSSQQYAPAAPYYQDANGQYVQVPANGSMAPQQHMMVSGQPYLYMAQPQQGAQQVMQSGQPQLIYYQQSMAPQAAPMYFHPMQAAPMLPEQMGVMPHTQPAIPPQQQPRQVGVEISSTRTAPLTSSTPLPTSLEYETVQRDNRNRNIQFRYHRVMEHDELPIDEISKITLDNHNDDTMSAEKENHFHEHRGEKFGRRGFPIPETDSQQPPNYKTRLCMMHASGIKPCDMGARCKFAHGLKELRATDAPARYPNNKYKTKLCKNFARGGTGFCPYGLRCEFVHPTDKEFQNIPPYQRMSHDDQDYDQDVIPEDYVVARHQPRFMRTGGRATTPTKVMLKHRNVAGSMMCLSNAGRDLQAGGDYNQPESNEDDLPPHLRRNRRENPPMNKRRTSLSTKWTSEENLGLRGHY

[6] = biological target: Tyrosine-protein kinase Lck (Homo sapiens, UniProt P06239); type: functional;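 further: lck was assayed as one member of a kinase panel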
Tyrosine-protein kinase Lck, sequence (P06239 whole entry, the tested form may be a part): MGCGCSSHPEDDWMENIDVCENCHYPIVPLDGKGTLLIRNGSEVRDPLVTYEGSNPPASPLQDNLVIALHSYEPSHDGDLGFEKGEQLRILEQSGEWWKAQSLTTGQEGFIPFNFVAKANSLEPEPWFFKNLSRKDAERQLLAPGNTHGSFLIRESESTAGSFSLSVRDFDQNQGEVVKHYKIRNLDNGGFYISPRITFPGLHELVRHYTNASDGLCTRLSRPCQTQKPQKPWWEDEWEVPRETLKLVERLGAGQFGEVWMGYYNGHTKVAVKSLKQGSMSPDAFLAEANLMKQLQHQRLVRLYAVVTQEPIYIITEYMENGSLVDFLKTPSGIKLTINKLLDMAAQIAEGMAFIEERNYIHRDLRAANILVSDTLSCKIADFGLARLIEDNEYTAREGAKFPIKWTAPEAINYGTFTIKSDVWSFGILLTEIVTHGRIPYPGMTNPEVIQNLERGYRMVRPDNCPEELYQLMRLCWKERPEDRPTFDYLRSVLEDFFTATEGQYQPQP

LIM domain kinase 1 = LIM domain kinase 1 (Homo sapiens, UniProt P53667); experiment: Navigating the Kinome. Panel member name: LIMK1; type: functional
BJ [7] = experiment: cytotoxicity toward BJ-TERT fibroblasts, dose response, cell-based, RAS-independent, luminescence (AID 1933); type: functional; settings: Homo sapiens
BJ [8] = experiment: cells; type: functional, cell-based; settings: Homo sapiens
Nonstructural protein 1 = Nonstructural protein 1 (Influenza A virus, UniProt Q194T2); type: functional, Influenza A virus (A/California/07/2009(H1N1))
Nonstructural protein 1, sequence (Q194T2 whole entry): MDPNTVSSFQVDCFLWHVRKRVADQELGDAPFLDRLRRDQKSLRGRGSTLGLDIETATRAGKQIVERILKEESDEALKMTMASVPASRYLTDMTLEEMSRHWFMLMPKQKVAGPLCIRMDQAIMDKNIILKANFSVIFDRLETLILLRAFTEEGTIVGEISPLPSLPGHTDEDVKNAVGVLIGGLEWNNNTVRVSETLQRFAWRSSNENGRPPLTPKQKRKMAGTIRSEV

Albumin = Albumin (Bos taurus, UniProt P02769); experiment: Counterscreen for inhibitors of T-cell receptor (TCR)-CD3 interaction: Fluorescence-based biochemical high throughput dose response assay to identify inhibitors of T-cell receptor (TCR)-CD3 interaction using a TAMRA-labeled BSA probe.; type: functional
[9] = AlphaScreen signal interference compounds, dose response, artefact control for ARNT-TACC3 interaction inhibitor project, biochemical, luminescence, cherry-pick (AID 651705); type: functional;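 further: AlphaScreen bead proximity signal that flags compounds interfering with the detection technology; potency reflects signal decrease which marks the compound as an assay artifact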
[10] = biological target: Testis-specific serine/threonine-protein kinase 2 (Homo sapiens, UniProt Q96PF2); type: functional;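 further: part of the Navigating the Kinome panel, target entry STK22B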
Testis-specific serine/threonine-protein kinase 2, sequence (Q96PF2 whole entry): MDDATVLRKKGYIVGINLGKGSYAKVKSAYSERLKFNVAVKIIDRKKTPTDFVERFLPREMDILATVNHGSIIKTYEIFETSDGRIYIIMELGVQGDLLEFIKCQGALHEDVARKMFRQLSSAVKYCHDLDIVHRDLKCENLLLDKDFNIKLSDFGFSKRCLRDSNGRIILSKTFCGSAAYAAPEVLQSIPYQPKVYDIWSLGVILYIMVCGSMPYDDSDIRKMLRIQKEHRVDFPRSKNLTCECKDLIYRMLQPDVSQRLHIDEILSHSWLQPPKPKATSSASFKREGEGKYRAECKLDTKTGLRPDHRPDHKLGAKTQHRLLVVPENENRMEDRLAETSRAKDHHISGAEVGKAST

[11] = biological target: Tyrosine-protein kinase Fer (Homo sapiens, UniProt P16591); type: functional;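 further: FER tested as one member of a kinome panel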
[12] = biological target: Serine/threonine-protein kinase MRCK alpha (Homo sapiens, UniProt Q5VT25); type: functional
[13] = biological target: Tyrosine-protein kinase Lyn (Homo sapiens, UniProt P07948); type: functional;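 further: lyn as one member of a kinase panel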
Tyrosine-protein kinase Lyn, sequence (P07948 whole entry): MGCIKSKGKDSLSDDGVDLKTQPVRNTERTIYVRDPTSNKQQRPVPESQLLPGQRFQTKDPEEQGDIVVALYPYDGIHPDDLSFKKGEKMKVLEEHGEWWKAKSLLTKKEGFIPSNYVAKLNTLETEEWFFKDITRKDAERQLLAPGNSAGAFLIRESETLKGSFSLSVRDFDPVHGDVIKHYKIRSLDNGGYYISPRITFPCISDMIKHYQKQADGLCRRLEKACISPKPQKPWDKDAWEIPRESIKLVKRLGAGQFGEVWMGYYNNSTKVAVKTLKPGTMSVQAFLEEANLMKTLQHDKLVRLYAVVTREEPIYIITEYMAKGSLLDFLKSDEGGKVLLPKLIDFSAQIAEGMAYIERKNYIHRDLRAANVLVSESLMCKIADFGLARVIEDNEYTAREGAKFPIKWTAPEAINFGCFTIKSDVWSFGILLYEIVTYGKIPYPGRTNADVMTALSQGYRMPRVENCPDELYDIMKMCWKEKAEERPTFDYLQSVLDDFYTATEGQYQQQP

Insulin receptor = Insulin receptor (Homo sapiens, UniProt P06213); type: functional;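 further: insulin receptor kinase tested as one member of a kinome-wide kinase panel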
Insulin receptor, sequence (P06213 28-758 limits assumed): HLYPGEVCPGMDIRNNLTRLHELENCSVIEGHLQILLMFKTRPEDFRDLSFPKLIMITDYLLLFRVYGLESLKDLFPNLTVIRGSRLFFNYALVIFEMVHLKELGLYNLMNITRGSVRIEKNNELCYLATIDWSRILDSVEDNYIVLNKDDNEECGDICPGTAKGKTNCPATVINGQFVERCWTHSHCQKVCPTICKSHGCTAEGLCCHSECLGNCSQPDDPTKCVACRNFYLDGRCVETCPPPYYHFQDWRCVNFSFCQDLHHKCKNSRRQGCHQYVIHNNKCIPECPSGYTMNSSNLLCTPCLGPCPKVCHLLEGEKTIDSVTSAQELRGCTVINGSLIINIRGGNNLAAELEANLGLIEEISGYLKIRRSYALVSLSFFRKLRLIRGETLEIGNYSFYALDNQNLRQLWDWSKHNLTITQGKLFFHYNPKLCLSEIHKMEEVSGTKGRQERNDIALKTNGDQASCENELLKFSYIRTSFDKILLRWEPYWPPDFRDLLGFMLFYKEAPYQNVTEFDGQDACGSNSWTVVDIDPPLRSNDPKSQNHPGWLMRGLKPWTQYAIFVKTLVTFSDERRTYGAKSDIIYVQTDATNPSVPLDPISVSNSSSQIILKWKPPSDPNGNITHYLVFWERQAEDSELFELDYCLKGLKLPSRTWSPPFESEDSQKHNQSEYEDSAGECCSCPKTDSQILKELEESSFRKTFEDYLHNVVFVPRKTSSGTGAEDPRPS
Insulin receptor, sequence (P06213 763-1382 limits assumed): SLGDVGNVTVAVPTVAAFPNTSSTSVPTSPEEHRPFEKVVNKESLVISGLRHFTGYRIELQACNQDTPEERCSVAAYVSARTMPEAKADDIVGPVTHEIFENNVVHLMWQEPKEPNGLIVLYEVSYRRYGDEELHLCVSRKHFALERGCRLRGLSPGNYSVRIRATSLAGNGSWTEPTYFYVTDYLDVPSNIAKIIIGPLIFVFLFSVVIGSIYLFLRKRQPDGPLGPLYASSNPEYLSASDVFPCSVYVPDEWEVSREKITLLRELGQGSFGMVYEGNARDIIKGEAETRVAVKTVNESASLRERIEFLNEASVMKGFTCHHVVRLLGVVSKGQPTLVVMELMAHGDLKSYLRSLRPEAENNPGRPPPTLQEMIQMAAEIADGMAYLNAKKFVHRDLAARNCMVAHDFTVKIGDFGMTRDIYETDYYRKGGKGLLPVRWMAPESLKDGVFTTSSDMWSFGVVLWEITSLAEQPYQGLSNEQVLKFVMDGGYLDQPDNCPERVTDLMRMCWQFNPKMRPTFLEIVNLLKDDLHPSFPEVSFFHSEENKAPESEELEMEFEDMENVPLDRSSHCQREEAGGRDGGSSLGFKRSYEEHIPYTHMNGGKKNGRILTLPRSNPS

[14] = biological target: Protein-tyrosine kinase 2-beta (Homo sapiens, UniProt Q14289); type: functional
[15] = biological target: Calcium/calmodulin-dependent protein kinase type II subunit beta (Homo sapiens, UniProt Q13554); type: functional
Calcium/calmodulin-dependent protein kinase type II subunit beta, sequence (Q13554 whole entry): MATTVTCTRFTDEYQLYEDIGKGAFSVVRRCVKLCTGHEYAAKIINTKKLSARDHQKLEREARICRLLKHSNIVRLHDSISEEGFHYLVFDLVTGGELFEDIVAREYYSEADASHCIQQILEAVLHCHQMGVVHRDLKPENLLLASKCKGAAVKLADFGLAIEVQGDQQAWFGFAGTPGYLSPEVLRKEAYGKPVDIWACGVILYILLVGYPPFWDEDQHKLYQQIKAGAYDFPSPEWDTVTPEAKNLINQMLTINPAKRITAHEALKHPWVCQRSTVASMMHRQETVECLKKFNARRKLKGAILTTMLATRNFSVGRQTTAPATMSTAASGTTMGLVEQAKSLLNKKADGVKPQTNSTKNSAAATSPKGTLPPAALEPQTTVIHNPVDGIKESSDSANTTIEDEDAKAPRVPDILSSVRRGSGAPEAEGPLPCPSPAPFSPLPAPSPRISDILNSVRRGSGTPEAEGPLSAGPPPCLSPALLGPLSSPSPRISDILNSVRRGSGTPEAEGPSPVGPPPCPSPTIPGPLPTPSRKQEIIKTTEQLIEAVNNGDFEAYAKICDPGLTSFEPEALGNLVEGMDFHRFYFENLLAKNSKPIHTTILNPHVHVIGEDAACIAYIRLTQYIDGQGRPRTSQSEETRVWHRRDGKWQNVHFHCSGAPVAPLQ

[16] = biological target: Mitogen-activated protein kinase 13 (Homo sapiens, UniProt O15264); type: functional
[17] = biological target: Serine/threonine-protein kinase Nek4 (Homo sapiens, UniProt P51957); type: functional
Serine/threonine-protein kinase Nek4, sequence (P51957 whole entry): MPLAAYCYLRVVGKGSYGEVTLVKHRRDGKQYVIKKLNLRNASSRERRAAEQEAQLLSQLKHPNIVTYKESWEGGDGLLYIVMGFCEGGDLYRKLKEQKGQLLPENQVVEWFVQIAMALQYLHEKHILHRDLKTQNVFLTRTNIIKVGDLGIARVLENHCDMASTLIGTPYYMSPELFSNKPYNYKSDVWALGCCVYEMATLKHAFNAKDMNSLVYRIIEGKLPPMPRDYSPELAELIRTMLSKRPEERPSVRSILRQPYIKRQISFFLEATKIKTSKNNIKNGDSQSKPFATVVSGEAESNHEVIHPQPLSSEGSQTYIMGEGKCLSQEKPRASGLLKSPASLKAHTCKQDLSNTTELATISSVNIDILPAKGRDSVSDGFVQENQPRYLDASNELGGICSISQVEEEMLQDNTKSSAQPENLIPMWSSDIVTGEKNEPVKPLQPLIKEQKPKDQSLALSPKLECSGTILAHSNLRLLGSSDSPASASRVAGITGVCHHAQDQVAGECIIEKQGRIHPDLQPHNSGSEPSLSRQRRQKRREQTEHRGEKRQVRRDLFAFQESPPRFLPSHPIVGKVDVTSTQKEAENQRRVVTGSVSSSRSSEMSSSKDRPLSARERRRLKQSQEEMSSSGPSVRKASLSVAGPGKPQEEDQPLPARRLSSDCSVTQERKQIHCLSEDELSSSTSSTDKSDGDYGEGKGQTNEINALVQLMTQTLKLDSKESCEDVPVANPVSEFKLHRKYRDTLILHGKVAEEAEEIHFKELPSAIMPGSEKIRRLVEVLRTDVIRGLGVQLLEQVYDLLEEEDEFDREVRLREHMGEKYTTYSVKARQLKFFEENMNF

Intestinal-type alkaline phosphatase, sequence (P24822 whole entry): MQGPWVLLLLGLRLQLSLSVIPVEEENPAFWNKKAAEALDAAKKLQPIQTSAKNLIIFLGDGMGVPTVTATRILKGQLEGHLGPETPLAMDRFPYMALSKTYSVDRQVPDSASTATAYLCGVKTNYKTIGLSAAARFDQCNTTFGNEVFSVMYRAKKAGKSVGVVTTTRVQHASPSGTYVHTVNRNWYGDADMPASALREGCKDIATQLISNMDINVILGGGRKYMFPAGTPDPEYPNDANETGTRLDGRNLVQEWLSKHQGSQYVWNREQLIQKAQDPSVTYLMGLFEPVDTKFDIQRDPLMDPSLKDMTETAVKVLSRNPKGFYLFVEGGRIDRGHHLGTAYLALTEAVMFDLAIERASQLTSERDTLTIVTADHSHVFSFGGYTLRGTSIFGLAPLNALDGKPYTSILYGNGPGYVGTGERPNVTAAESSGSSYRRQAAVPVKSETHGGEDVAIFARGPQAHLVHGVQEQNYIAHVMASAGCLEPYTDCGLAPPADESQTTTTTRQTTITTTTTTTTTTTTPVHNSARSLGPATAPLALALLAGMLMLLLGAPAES

With `O=C1/C(=C\c2cccc(O)c2O)SC(=S)N1Cc1ccccc1` the IC50 [1] was 3.23 µM (active).
With `COc1cccc2c1NC(C(=O)O)C1CC=CC21` (configuration not stated) the IC50 [2] was > 10 µM (not active), the IC50 [3] was > 20 µM (inactive) and the IC50 (Troponin, cardiac muscle) was 27.7 µM (inactive). For the same compound, the IC50 [4] was 13.1 µM (active) and the EC50 [5] was 8.25 µM (active).
In the case of `COc1c(-c2nc3ccccc3[nH]2)c(O)cc2oc(C)cc(=O)c12`, the Ki [6] is reported as > 6.31 µM (inactive) and the Ki (LIM domain kinase 1) is reported as 0.0316 µM (active).
In the case of `CCc1ccc(S(=O)(=O)/N=C2\C=C(Nc3ccc(O)cc3)C(=O)c3ccccc32)cc1`, the EC50 (BJ [7]) is reported as 1.51 µM (active), the EC50 (BJ [8]) is reported as 2.96 µM (active) and the IC50 (Nonstructural protein 1) is reported as 5.88 µM (active).
With `Cc1cc([N+](=O)[O-])cc(/C=N\NC(=O)C2COc3ccccc3O2)c1O` (configuration not stated) the IC50 (Albumin) was > 94.2 µM (inactive) and the AC50 [9] was 93.6 µM (active).
In the case of `Cc1ccc(F)c(NC(=O)Nc2ccc(-c3cccc4[nH]nc(N)c34)cc2)c1` [LINIFANIB], the Ki [10] is reported as > 1.58 µM (inactive), the Ki [11] is reported as 0.501 µM (active) and the Ki [12] is reported as > 10 µM (inactive). The Ki [13] was 0.251 µM (active), the Ki (Insulin receptor) was 0.794 µM (active) and the Ki [14] was > 1.58 µM (inactive). The Ki [15] was 3.98 µM (active), the Ki [16] was 2.51 µM (active) and the Ki [17] was > 6.31 µM (inactive).
